Assay results from ChEMBL document CHEMBL6078666, “Discovery of Novel Coumarin Pleuromutilin Derivatives as Potent Anti-MRSA Agents” (J Med Chem, 2024).
In brackets after ≈: the same amount, converted by molar mass. Activity calls are given as the source filed them. No cut-off for these calls is given here.

Experiments:
[1] = test system: Staphylococcus aureus; test: Antibacterial activity against methicillin-resistant Staphylococcus aureus clinical isolate 202405157 assessed as bacterial growth inhibition measured after 20 hrs by broth dilution method; format: functional
[2] = test system: Staphylococcus aureus; test: Antibacterial activity against methicillin-resistant Staphylococcus aureus ATCC 43300 assessed as bacterial growth inhibition measured after 20 hrs by broth dilution method; format: functional
[3] = test system: Staphylococcus epidermidis; test: Ratio of MBC to MIC against Staphylococcus epidermidis ATCC 51625; format: functional
[4] = test system: Staphylococcus aureus; test: Ratio of MBC to MIC against methicillin-resistant Staphylococcus aureus clinical isolate 202405157; format: functional
[5] = test system: Streptococcus pneumoniae; test: Ratio of MBC to MIC against penicillin-intermediate Streptococcus pneumoniae ATCC 49619; format: functional
[6] = test system: Staphylococcus aureus; test: Drug resistance, ratio of MIC for Staphylococcus aureus ATCC 33591 after 9 days to MIC for methicillin-resistant Staphylococcus aureus ATCC 33591 after initial exposure; format: functional; settings: time 9 day
[7] = test system: Staphylococcus epidermidis; test: Antibacterial activity against Staphylococcus epidermidis ATCC 51625 assessed as bacterial growth inhibition measured after 20 hrs by broth dilution method; format: functional
[8] = test system: Staphylococcus aureus; test: Induction of morphological changes in methicillin-resistant Staphylococcus aureus ATCC 33591 assessed as changes in cell surface at 1 time MIC measured after 4 hrs by SEM analysis; format: functional, organism-based
[9] = test system: Enterococcus faecium; test: Ratio of MBC to MIC against vancomycin-resistant Enterococcus faecium ATCC 51559; format: functional
[10] = test system: Staphylococcus aureus; test: Ratio of MBC to MIC against Staphylococcus aureus ATCC 43300; format: functional
[11] = test system: Staphylococcus aureus; test: Antibacterial activity against methicillin-resistant Staphylococcus aureus ATCC 33591 infected in female C57 mouse systemic infection model assessed as reduction in bacterial load in kidney at 40 mg/kg, iv administered twice daily and measured after 7 days; format: functional; settings: time 7 day
[12] = test system: Streptococcus pneumoniae; test: Antibacterial activity against penicillin-resistant Streptococcus pneumoniae ATCC 51916 assessed as bacterial growth inhibition measured after 20 hrs by broth dilution method; format: functional
[13] = test system: Enterococcus faecium; test: Ratio of MBC to MIC against vancomycin-resistant Enterococcus faecium clinical isolate 202308456; format: functional
[14] = test system: Staphylococcus aureus; test: Antibacterial activity against Staphylococcus aureus ATCC 25923 assessed as reduction in GFP expression at 1 to 4 times MIC measured after 1 hr by fluorescence microscopy based analysis; format: functional, organism-based
[15] = test system: Staphylococcus aureus; test: Antibacterial activity against methicillin-resistant Staphylococcus aureus ATCC 33591 infected in female C57 mouse systemic infection model assessed as effective dose; format: functional
[16] = test system: Streptococcus pneumoniae; test: Antibacterial activity against penicillin-intermediate Streptococcus pneumoniae ATCC 49619 assessed as bacterial growth inhibition measured after 20 hrs by broth dilution method; format: functional
[17] = test system: Staphylococcus aureus; test: Antibacterial activity against methicillin-resistant Staphylococcus aureus ATCC 33591 infected in female C57 mouse systemic infection model assessed as reduction in bacterial load in lung at 40 mg/kg, iv administered twice daily and measured after 7 days; format: functional; settings: time 7 day
[18] = test system: Enterococcus faecium; test: Antibacterial activity against vancomycin-resistant Enterococcus faecium ATCC 700221 assessed as bacterial growth inhibition measured after 20 hrs by broth dilution method; format: functional
[19] = test system: Staphylococcus aureus; test: Drug resistance, ratio of MIC for Staphylococcus aureus ATCC 33591 after 8 days to MIC for methicillin-resistant Staphylococcus aureus ATCC 33591 after initial exposure; format: functional; settings: time 8 day
[20] = test system: Staphylococcus aureus; test: Ratio of MBC to MIC against methicillin-resistant Staphylococcus aureus ATCC 33591; format: functional
[21] = test system: Staphylococcus aureus; test: Antibacterial activity against methicillin-resistant Staphylococcus aureus ATCC 33591 infected in female C57 mouse systemic infection model assessed as reduction in bacterial load in spleen at 40 mg/kg, iv administered twice daily and measured after 7 days; format: functional; settings: time 7 day
[22] = test system: Staphylococcus epidermidis; test: Antibacterial activity against methicillin-resistant Staphylococcus epidermidis clinical isolate 202409139 assessed as bacterial growth inhibition measured after 20 hrs by broth dilution method; format: functional
[23] = test system: Staphylococcus aureus; test: Antibacterial activity against methicillin resistant Staphylococcus aureus ATCC 33591 assessed as post antibiotic effect at 2 times MIC by time kill assay; format: functional
[24] = test system: Staphylococcus aureus; test: Bactericidal activity against methicillin-resistant Staphylococcus aureus ATCC 33591 at 4 to 8 times MIC measured within 24 hrs by time kill assay; format: functional, organism-based
[25] = test system: Staphylococcus aureus; test: Antibacterial activity against methicillin-resistant Staphylococcus aureus ATCC 33591 infected in female C57 mouse systemic infection model assessed as reduction in bacterial load in liver at 40 mg/kg, iv administered twice daily and measured after 7 days; format: functional; settings: time 7 day
[26] = test system: Staphylococcus aureus; test: Antibacterial activity against methicillin-resistant Staphylococcus aureus clinical isolate 202311772 assessed as bacterial growth inhibition measured after 20 hrs by broth dilution method; format: functional
[27] = test system: Staphylococcus aureus; test: Antibacterial activity against methicillin-resistant Staphylococcus aureus ATCC 33591 infected in female C57 mouse systemic infection model assessed as reduction in bacterial load in heart at 40 mg/kg, iv administered twice daily and measured after 7 days; format: functional; settings: time 7 day
[28] = test system: Staphylococcus epidermidis; test: Antibacterial activity against methicillin-resistant Staphylococcus epidermidis clinical isolate 202409454 assessed as bacterial growth inhibition measured after 20 hrs by broth dilution method; format: functional
[29] = test system: Staphylococcus aureus; test: Ratio of MBC to MIC against methicillin-resistant Staphylococcus aureus clinical isolate 202311772; format: functional
[30] = test system: Staphylococcus aureus; test: Antibacterial activity against methicillin resistant Staphylococcus aureus ATCC 33591 assessed as post antibiotic effect at 4 times MIC by time kill assay; format: functional
[31] = test system: Staphylococcus aureus; test: Antibacterial activity against methicillin-resistant Staphylococcus aureus clinical isolate 202313160 assessed as bacterial growth inhibition measured after 20 hrs by broth dilution method; format: functional
[32] = test system: Enterococcus faecium; test: Ratio of MBC to MIC against vancomycin-resistant Enterococcus faecium ATCC 700221; format: functional
[33] = test system: Staphylococcus aureus; test: Antibacterial activity against methicillin-resistant Staphylococcus aureus ATCC 33591 assessed as bacterial growth inhibition measured after 20 hrs by broth dilution method; format: functional
[34] = test system: Enterococcus faecium; test: Antibacterial activity against vancomycin-resistant Enterococcus faecium ATCC 51559 assessed as bacterial growth inhibition measured after 20 hrs by broth dilution method; format: functional
[35] = test system: Enterococcus faecium; test: Antibacterial activity against vancomycin-resistant Enterococcus faecium clinical isolate 202308456 assessed as bacterial growth inhibition measured after 20 hrs by broth dilution method; format: functional

SMILES: C=C[C@]1(C)C[C@@H](OC(=O)CSCCN(CC)CC)[C@]2(C)[C@H](C)CC[C@]3(CCC(=O)[C@H]32)[C@@H](C)[C@@H]1O [TIAMULIN]
- MIC [1]: 2 µg/mL (≈ 4.05 µM)
- MIC [2]: 0.5 µg/mL (≈ 1.01 µM)
- Ratio [3]: >4
- Ratio [4]: 4
- Ratio [5]: >4
- fold change (FC) [6]: 64
- MIC [7]: 0.125 µg/mL (≈ 0.253 µM)
- Activity [8]: inactive
- Ratio [9]: 2
- Ratio [10]: >4
- Activity [11]: 1.39 log10CFU/g
- MIC [12]: 0.125 µg/mL (≈ 0.253 µM)
- Ratio [13]: 4
- Activity [14]: Active
- ED50 [15]: 28.9 mg/kg
- MIC [16]: 0.25 µg/mL (≈ 0.506 µM)
- Activity [17]: 1.23 log10CFU/g
- MIC [18]: 0.125 µg/mL (≈ 0.253 µM)
- fold change (FC) [19]: 4
- Ratio [20]: 4
- Activity [21]: 0.7 log10CFU/g
- MIC [22]: 1 µg/mL (≈ 2.03 µM)
- PAE [23]: 1.07 h
- Activity [24]: Active
- Activity [25]: 0.28 log10CFU/g
- MIC [26]: 2 µg/mL (≈ 4.05 µM)
- Activity [27]: 2.05 log10CFU/g
- MIC [28]: 2 µg/mL (≈ 4.05 µM)
- Ratio [29]: 4
- PAE [30]: 1.19 h
- MIC [31]: 1 µg/mL (≈ 2.03 µM)
- Ratio [32]: >4
- MIC [33]: 0.5 µg/mL (≈ 1.01 µM)
- MIC [34]: 0.5 µg/mL (≈ 1.01 µM)
- MIC [35]: 2 µg/mL (≈ 4.05 µM)
